10 compounds from patent publication US20250092044A1, “Kinase Inhibitors” (Incyte Corporation, priority 2023, published 2025) can be followed below.

A value given as a limit tells only on which side of the number the result lay.

Assay [1] relates to TRKA. As to the kind of experiment: TRKA Enzymatic Assay. It counts as biochemical. An outline of the steps: (§1)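 Reaction contained 0.58 nM TRKA, 1 mM ATP, 500 nM biotinylated TK substrate and 62.5 nM SEB reagent in HEPES 50 mM pH 7.0 with 10 mM MgCl2, 1 mM DTT and 0.1 mM orthovanadate, 0.5% DMSO, ATP-initiated. After 60 min at room temperature, the TR-FRET 665/620 nm ratio was read. IC50 was fitted from percent control activity versus log concentration, with DMSO and no-ATP wells as controls.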

Assay [2] deals with TRKA (Homo sapiens (Human), UniProt P04629). Nature of the assay: TRKA Enzymatic Assay. In kind it is biochemical. The settings on record: 1 mM ATP. An outline of the steps: as §1
TRKA (Homo sapiens (Human), UniProt P04629), sequence (P04629 33-796, species assumed): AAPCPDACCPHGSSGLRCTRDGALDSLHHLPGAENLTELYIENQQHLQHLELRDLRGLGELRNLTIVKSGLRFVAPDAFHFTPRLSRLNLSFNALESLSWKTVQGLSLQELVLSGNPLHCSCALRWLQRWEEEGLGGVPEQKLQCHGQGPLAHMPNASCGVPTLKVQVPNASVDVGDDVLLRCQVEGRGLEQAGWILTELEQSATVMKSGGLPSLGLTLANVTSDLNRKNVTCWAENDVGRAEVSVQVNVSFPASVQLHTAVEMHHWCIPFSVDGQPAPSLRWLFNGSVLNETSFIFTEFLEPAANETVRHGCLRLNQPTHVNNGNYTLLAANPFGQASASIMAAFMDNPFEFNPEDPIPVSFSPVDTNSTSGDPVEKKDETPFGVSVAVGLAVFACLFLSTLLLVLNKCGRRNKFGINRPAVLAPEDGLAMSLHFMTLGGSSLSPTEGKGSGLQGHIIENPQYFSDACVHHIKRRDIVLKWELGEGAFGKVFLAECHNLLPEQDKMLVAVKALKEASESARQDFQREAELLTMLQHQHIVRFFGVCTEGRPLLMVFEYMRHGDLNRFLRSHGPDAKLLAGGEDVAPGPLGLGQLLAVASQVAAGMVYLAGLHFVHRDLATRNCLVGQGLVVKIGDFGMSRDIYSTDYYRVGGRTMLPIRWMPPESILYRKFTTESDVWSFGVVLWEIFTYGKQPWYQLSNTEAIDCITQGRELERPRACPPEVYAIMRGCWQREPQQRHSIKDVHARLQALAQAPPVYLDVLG
The test system of assay [3] is FLT3. As to the kind of experiment: FLT3 Enzymatic Assay. In kind it is biochemical. An outline of the steps: (§2)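 Room-temperature HTRF kinase assay (665/620 nm ratio) with 0.011 nM FLT3, 1 mM ATP, 500 nM biotinylated TK substrate in HEPES pH 7.0 buffer with MgCl2 and DTT; 0.5% DMSO final. Read after 60 min incubation; IC50 fitted from percent control activity versus log concentration, no-ATP wells as negative control.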

Assay [4] concerns the target FLT3 (Homo sapiens (Human), UniProt P36888). As to the kind of experiment: FLT3 Enzymatic Assay. It counts as biochemical. Conditions: 1 mM ATP. The essentials:
as §2

The target of assay [5] is catalytic domain (JH1) of human JAK2 (Homo sapiens (Human), UniProt O60674). As to the kind of experiment: JAK2 LanthaScreen JH1 Binding Assay. Conditions: read-out: JH1 Bind IC50. An outline of the steps:
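FLAG-tagged biotinylated JH1 (aa 826-1132, baculovirus-expressed), 1.5 nM, with serially diluted compound, 50 nM fluorescent tracer and 0.5 nM streptavidin-Tb in pH 7.5 Tris buffer, 2 h at 25 °C; nonspecific binding with 2 mM ATP. TR-FRET read, IC50 by four-parameter fit.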
For orientation: In TR-FRET formats the signal depends on donor and acceptor labels being close together.

FLT3 (Homo sapiens (Human), UniProt P36888), sequence (P36888 27-993, species assumed): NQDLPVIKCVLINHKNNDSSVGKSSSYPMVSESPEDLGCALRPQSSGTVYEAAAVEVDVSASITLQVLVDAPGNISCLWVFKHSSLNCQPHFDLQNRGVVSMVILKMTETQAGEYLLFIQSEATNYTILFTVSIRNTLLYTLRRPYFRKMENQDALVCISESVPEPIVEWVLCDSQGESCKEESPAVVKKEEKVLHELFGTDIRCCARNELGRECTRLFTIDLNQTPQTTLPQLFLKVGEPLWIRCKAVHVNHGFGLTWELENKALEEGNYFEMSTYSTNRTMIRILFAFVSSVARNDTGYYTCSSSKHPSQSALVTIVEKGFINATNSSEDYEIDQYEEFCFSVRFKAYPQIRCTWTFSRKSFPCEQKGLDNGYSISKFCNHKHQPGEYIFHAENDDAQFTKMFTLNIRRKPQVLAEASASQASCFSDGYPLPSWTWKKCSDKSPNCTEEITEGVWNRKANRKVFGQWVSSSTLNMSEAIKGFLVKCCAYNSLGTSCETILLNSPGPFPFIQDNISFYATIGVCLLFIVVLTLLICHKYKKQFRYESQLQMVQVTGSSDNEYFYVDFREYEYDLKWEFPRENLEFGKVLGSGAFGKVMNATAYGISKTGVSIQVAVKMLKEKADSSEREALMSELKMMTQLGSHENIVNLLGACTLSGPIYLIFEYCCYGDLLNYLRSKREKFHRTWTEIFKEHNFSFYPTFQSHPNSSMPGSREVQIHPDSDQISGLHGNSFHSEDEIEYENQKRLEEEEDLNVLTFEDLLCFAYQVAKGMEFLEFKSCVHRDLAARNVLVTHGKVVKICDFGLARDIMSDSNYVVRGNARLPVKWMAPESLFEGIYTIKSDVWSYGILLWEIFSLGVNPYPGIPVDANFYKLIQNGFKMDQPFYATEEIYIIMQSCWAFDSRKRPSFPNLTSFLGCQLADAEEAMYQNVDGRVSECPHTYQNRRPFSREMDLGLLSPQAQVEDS
catalytic domain (JH1) of human JAK2, sequence (O60674 826-1132): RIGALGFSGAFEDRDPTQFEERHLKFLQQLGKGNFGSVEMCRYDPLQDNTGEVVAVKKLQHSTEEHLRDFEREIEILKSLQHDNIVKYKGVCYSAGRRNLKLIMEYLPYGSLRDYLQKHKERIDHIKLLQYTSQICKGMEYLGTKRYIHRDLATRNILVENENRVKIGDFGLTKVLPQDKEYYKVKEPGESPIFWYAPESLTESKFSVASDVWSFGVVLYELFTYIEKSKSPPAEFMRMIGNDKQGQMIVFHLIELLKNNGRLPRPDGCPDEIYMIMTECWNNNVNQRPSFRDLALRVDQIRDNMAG

As to `COC(=O)N[C@@H]1CC[C@@H](n2c(=O)n(C)c3cnc4[nH]c(-c5ccc(C(=O)N6CCOCC6)c(F)c5)c(-c5ccc6c(cnn6C(C)C)c5)c4c32)C1` [Example 16, Methyl ((1R,3R)-3-(7-(3-fluoro-4-(morpholine-4-carbonyl)phenyl)-8-(1-isopropyl-1H-indazol-5-yl)-3-methyl-2-oxo-3,6-dihydroimidazo[4,5-d]pyrrolo[2,3-b]pyridin-1(2H)-yl)cyclopentyl)carbamate], the “Selectivity TRKA/JH2 V617F” value in the assay on TRKA [1] is listed as “****** (selectivity of >12500-fold)”. In addition, the IC50 at TRKA [2] is 1.25 to 2.5 µM; against FLT3 [4], 1.25 to 2.5 µM; in assay [5], greater than 1 µM. The “Selectivity FLT3/JH2 V617F” value in the assay with FLT3 [3] is reported as “****** (selectivity of >12500-fold)”.
Take `COC(=O)N[C@@H]1CC[C@@H](n2c(=O)n(C)c3cnc4[nH]c(-c5ccc(C(=O)NC6(C(F)(F)F)CC6)c(F)c5)c(-c5ccc6c(cnn6C(C)C)c5)c4c32)C1` [Example 13, Methyl ((1R,3R)-3-(7-(3-fluoro-4-((1-(trifluoromethyl)cyclopropyl)carbamoyl)phenyl)-8-(1-isopropyl-1H-indazol-5-yl)-3-methyl-2-oxo-3,6-dihydroimidazo[4,5-d]pyrrolo[2,3-b]pyridin-1(2H)-yl)cyclopentyl)carbamate]: the “Selectivity TRKA/JH2 V617F” value in the assay with TRKA [1] was “***** (selectivity of >5000-fold to ≤12500-fold)”. Moreover, the IC50 against TRKA [2] is greater than 2.5 µM; on FLT3 [4], greater than 2.5 µM; in assay [5], greater than 1 µM. In the assay with FLT3 [3], the “Selectivity FLT3/JH2 V617F” value is “****** (selectivity of >12500-fold)”.
Turning to `COCCN(C)C(=O)c1ccc(-c2[nH]c3ncc4c(c3c2-c2ccc3c(cnn3C(C)C)c2)n([C@@H]2CC[C@@H](NC(=O)OC)C2)c(=O)n4C)cc1F` [Example 15, Methyl ((1R,3R)-3-(7-(3-fluoro-4-((2-methoxyethyl)(methyl)carbamoyl)phenyl)-8-(1-isopropyl-1H-indazol-5-yl)-3-methyl-2-oxo-3,6-dihydroimidazo[4,5-d]pyrrolo[2,3-b]pyridin-1(2H)-yl)cyclopentyl)carbamate], in the assay with TRKA [1], the “Selectivity TRKA/JH2 V617F” value is “****** (selectivity of >12500-fold)”. Further, the IC50 on TRKA [2] was greater than 2.5 µM; against FLT3 [4] it was 1.25 to 2.5 µM; in assay [5], greater than 1 µM. Further, in the assay with FLT3 [3], the “Selectivity FLT3/JH2 V617F” value was “****** (selectivity of >12500-fold)”.
`COC(=O)N[C@@H]1CC[C@@H](n2c(=O)n(C)c3cnc4[nH]c(-c5ccc(C(=O)NC6CC6)c(F)c5)c(-c5ccc6c(cnn6C(C)C)c5)c4c32)C1` [Example 8, Methyl ((1R,3R)-3-(7-(4-(cyclopropylcarbamoyl)-3-fluorophenyl)-8-(1-isopropyl-1H-indazol-5-yl)-3-methyl-2-oxo-3,6-dihydroimidazo[4,5-d]pyrrolo[2,3-b]pyridin-1(2H)-yl)cyclopentyl)carbamate]: the “Selectivity TRKA/JH2 V617F” value with TRKA [1] is given as “****** (selectivity of >12500-fold)”. In addition, the IC50 against TRKA [2] is greater than 2.5 µM; on FLT3 [4], greater than 2.5 µM; in assay [5] it was greater than 1 µM. Moreover, in the assay with FLT3 [3], the “Selectivity FLT3/JH2 V617F” value is “****** (selectivity of >12500-fold)”.
As to `CNC(=O)c1ccc(-c2[nH]c3ncc4c(c3c2-c2ccc3c(cnn3C(C)C)c2)n([C@@H]2CC[C@@H](NC(=O)OC)C2)c(=O)n4C)cc1` [Example 21, Methyl ((1R,3R)-3-(8-(1-isopropyl-1H-indazol-5-yl)-3-methyl-7-(4-(methylcarbamoyl)phenyl)-2-oxo-3,6-dihydroimidazo[4,5-d]pyrrolo[2,3-b]pyridin-1(2H)-yl)cyclopentyl)carbamate], the “Selectivity TRKA/JH2 V617F” value with TRKA [1] is recorded as “****** (selectivity of >12500-fold)”. The figures for the IC50 (at TRKA [2]; on FLT3 [4]; in assay [5]) were 1.25 to 2.5 µM, 0.25 to 1.25 µM and greater than 1 µM, respectively. The “Selectivity FLT3/JH2 V617F” value with FLT3 [3] was “***** (selectivity of >5000-fold to ≤12500-fold)”.
For `COC(=O)N[C@@H]1CC[C@@H](n2c(=O)n(C)c3cnc4[nH]c(-c5ccc(C(=O)NCC(F)(F)F)c(F)c5)c(-c5ccc6c(cnn6C(C)C)c5)c4c32)C1` [Example 11, Methyl ((1R,3R)-3-(7-(3-fluoro-4-((2,2,2-trifluoroethyl)carbamoyl)phenyl)-8-(1-isopropyl-1H-indazol-5-yl)-3-methyl-2-oxo-3,6-dihydroimidazo[4,5-d]pyrrolo[2,3-b]pyridin-1(2H)-yl)cyclopentyl)carbamate], in that order: “****** (selectivity of >12500-fold)”, greater than 2.5 µM, greater than 2.5 µM, greater than 1 µM and “****** (selectivity of >12500-fold)”.
On to `COC(=O)N[C@@H]1CC[C@@H](n2c(=O)n(C)c3cnc4[nH]c(-c5ccc(C(=O)NC6CC6C(F)(F)F)c(F)c5)c(-c5ccc6c(cnn6C(C)C)c5)c4c32)C1` (stereo partly drawn) [Example 10, Methyl ((1R,3R)-3-(7-(3-fluoro-4-((2-(trifluoromethyl)cyclopropyl)carbamoyl)phenyl)-8-(1-isopropyl-1H-indazol-5-yl)-3-methyl-2-oxo-3,6-dihydroimidazo[4,5-d]pyrrolo[2,3-b]pyridin-1(2H)-yl)cyclopentyl)carbamate], for which, in the assay on TRKA [1], the “Selectivity TRKA/JH2 V617F” value is on record as “****** (selectivity of >12500-fold)”. For the same compound, the figures for the half-inhibitory concentration (IC50) (on TRKA [2]; on FLT3 [4]; in assay [5]) were greater than 2.5 µM, greater than 2.5 µM and greater than 1 µM, respectively. In the assay on FLT3 [3], the “Selectivity FLT3/JH2 V617F” value is “****** (selectivity of >12500-fold)”.
For `CCNC(=O)c1ccc(-c2[nH]c3ncc4c(c3c2-c2ccc3c(cnn3C(C)C)c2)n([C@@H]2CC[C@@H](NC(=O)OC)C2)c(=O)n4C)cc1` [Example 23, Methyl ((1R,3R)-3-(7-(4-(ethylcarbamoyl)phenyl)-8-(1-isopropyl-1H-indazol-5-yl)-3-methyl-2-oxo-3,6-dihydroimidazo[4,5-d]pyrrolo[2,3-b]pyridin-1(2H)-yl)cyclopentyl)carbamate], the “Selectivity TRKA/JH2 V617F” value in the assay with TRKA [1] is given as “***** (selectivity of >5000-fold to ≤12500-fold)”. Besides, the figures for the 50% inhibitory concentration (IC50) (against TRKA [2]; at FLT3 [4]; in assay [5]) were 1.25 to 2.5 µM, 0.25 to 1.25 µM and greater than 1 µM, respectively. Further, the “Selectivity FLT3/JH2 V617F” value with FLT3 [3] is reported as “**** (selectivity of >1750-fold to ≤5000-fold)”.
For `COCCNC(=O)c1ccc(-c2[nH]c3ncc4c(c3c2-c2ccc3c(cnn3C(C)C)c2)n([C@@H]2CC[C@@H](NC(=O)OC)C2)c(=O)n4C)cc1F` [Example 14, Methyl ((1R,3R)-3-(7-(3-fluoro-4-((2-methoxyethyl)carbamoyl)phenyl)-8-(1-isopropyl-1H-indazol-5-yl)-3-methyl-2-oxo-3,6-dihydroimidazo[4,5-d]pyrrolo[2,3-b]pyridin-1(2H)-yl)cyclopentyl)carbamate], in that order: “****** (selectivity of >12500-fold)”, greater than 2.5 µM, greater than 2.5 µM, greater than 1 µM and “****** (selectivity of >12500-fold)”.
Turning to `COc1nn(C)cc1-c1[nH]c2ncc3c(c2c1-c1ccc2c(cnn2C)c1)n([C@H]1CC[C@@H](CC#N)CC1)c(=O)n3C` [E, reference compound], the “Selectivity TRKA/JH2 V617F” value in the assay with TRKA [1] is listed as “** (selectivity of >500-fold to ≤1500-fold)”. The “Selectivity FLT3/JH2 V617F” value in the assay on FLT3 [3] is given as “* (selectivity of ≤500-fold)”. Besides, the half-maximal inhibitory concentration (IC50) in assay [5] was greater than 1 µM.

A word on the IC50: it is the concentration needed to halve the response being measured.
